In patent publication US12522582B2 (Gilead Sciences, Inc., priority 2022, dated 2026):
Where two headings read alike, the source gives them in different places.

Columns and labels:
HSV-2 virus (MS strain) = assay: HSV-2 Cellomics Assay (immunofluorescence of HSV protein gD in infected ARPE-19 cells); conditions: Human alphaherpesvirus 2, ARPE-19, 16 h
Description: Compounds were tested for their ability to inhibit HSV-2 replication by monitoring the expression of the HSV protein gD using a high-throughput immunofluorescence-based assay. 10-dose, 3-fold serial dilutions of compounds were prepared at starting concentrations of 0.2 or 2 mM in 100% DMSO. […] The final starting concentration in the assay was either 1 or 10 μM. DMSO (no compound) and pritelivir were included on each microplate as negative and positive controls, respectively.
Prior to confluence, cells were transferred to a centrifuge tube and spun for 5 minutes at 1000 rpm. Cells were resuspended in assay medium (DMEM/F-12 Glutamax, 2% FBS, 1% Penicillin-Streptomycin) and counted. Cell density was adjusted to 150,000 cells/ml and infected with HSV-2 virus (MS strain, ATCC cat #VR-540) at a MOI of 0.06 in a 50 ml conical tube for 1 hour under constant rocking. Cells were then spun for 5 minutes at 1000 rpm and the media replaced with assay medium containing either 2% FBS or 10% human serum (EMD Millipore cat #S1-100 ML). 50 μl of the infection suspension were added into microplate wells that were pre-spotted with compounds (7,500 cells per well). Plates were incubated for 16 hours at 37° C.
After a 30-minute incubation at room temperature, plates were washed 4 times with 100 μl/well of PBS using a Biotek plate washer. […] Plates were washed 4 times again and 50 μl of DPBS were added to all wells prior to sealing the plates with a black adhesive seal. Fluorescence was measured on a Cellomics plate reader.
Data analysis was carried out using the Thermo Scientific HCS Studio software. Briefly, cells were identified using the DAPI nuclear stain and thresholds were set to filter cells out based on shape and size. A second threshold based on green fluorescence intensity (detection of HSV-2 gD) was set to identify HSV-2 infected cells. Data was reported as the average fluorescence intensity of HSV-2 infected cells.

[1] = MT-4 CC50 Assay (CellTiter Glo); format: cell-based; conditions: human, MT-4 cells, luminescence, read-out: CC50-MT4
Description: Compounds were tested in 384-well plates: 18 compounds in duplex. Compounds were diluted in 7 points, 3-fold with DMSO by Bravo. Assay plate, which contains 20 uL medium with compounds, was seeded 2000 MT-4 cells in 20 uL/well by Multi-drop to start the assay. The plate was incubated at 37° C. for 5 days. On 6th day, the CellTiter Glo 40 uL was added in each well. Luminescence was read by Victor II.

[2] = read-out: EC50-HSV2-10% Human Serum

SMILES	EC50 (HSV-2 virus (MS strain); [2]) [nM]	EC50 (HSV-2 virus (MS strain); read-out: EC50-HSV2-FBS) [nM]	CC50 at 5 days [1] [nM]
Cc1cc2c(cc1S(N)(=O)=O)N(C(=O)[C@@H]1Cc3ccc(-c4ccccn4)cc3C1)[C@H](C)C2 [Example 63, (R)-2,5-dimethyl-1-((R)-5-(pyridin-2-yl)-2,3-dihydro-1H-indene-2-carbonyl)indoline-6-sulfonamide]	912	25	≥ 10000
CC[C@@H]1Cc2cc(F)c(S(N)(=O)=O)cc2N1C(=O)[C@@H]1Cc2ccc(-c3ccccn3)cc2C1 [Example 113]	168	19	≥ 10000
NS(=O)(=O)c1ccc2c(c1)N(C(=O)C1Cc3ccc(-n4cccn4)cc3C1)CC2 (stereo not shown) [Example 78, 1-(5-(1H-pyrazol-1-yl)-2,3-dihydro-1H-indene-2-carbonyl)indoline-6-sulfonamide]	20700	65	≥ 50000
NS(=O)(=O)c1ccc2c(c1)N(C(=O)C1Cc3cc(-c4ccccn4)ccc3O1)CC2 (stereo not shown) [Example 36]	≥ 25000	71	≥ 50000
NS(=O)(=O)c1ccc2c(c1)N(C(=O)C1Cc3ccc(-c4cocn4)cc3C1)CC2 (stereo not shown) [Example 23]	11000	19	≥ 50000
C[S@](=N)(=O)c1cc2c(cc1F)CCN2C(=O)[C@@H]1Cc2ccc(-c3ccccn3)cc2C1 [Example 41, (S)-(5-fluoro-1-((R)-5-(pyridin-2-yl)-2,3-dihydro-1H-indene-2-carbonyl)indolin-6-yl)(imino)(methyl)-16-sulfanone]	140	37	≥ 10000
NS(=O)(=O)c1ccc2c(c1)N(C(=O)[C@H]1Cc3ccc(-c4cnccn4)cc3C1)CC2 [Example 86, (S)-1-(5-(pyrazin-2-yl)-2,3-dihydro-1H-indene-2-carbonyl)indoline-6-sulfonamide]	–	455	28500
NS(=O)(=O)c1cc2c(cc1F)CCN2C(=O)C1Cc2cc(-c3ccccn3)ccc2O1 (stereo not shown) [Example 37]	19300	10	≥ 50000
NS(=O)(=O)c1ccc2c(c1)N(C(=O)[C@@H]1Cc3ccc(-c4cccc(F)n4)cc3C1)CC2 [Example 85, (R)-1-(5-(6-fluoropyridin-2-yl)-2,3-dihydro-1H-indene-2-carbonyl)indoline-6-sulfonamide]	7500	8.9	330
C[S@](=N)(=O)c1cc2c(cc1F)CCN2C(=O)[C@@H]1Cc2ccc(-c3cc(F)ccc3F)cc2C1 [Example 53]	415	48	≥ 10000
C[S@](=N)(=O)c1ccc2c(c1)N(C(=O)[C@@H]1Cc3ccc(-c4ccccn4)cc3C1)CC2 (single isomer, unassigned) [Example 33]	1370	165	≥ 50000
C[C@H]1c2cc(F)c(S(N)(=O)=O)cc2N(C(=O)[C@@H]2Cc3ccc(-c4ccccn4)cc3C2)[C@H]1C [Example 49, (2S,3S)-5-fluoro-2,3-dimethyl-1-((R)-5-(pyridin-2-yl)-2,3-dihydro-1H-indene-2-carbonyl)indoline-6-sulfonamide]	1040	162	–
NS(=O)(=O)c1cc2c(cc1F)CCN2C(=O)C1Cc2cc(-c3ccccn3)cc(F)c2C1 (stereo not shown) [Example 13]	≥ 10000	250	–
C[C@H]1Cc2ccc(S(N)(=O)=O)cc2N1C(=O)[C@H]1Cc2ccc(-c3ccccn3)cc2C1 (single isomer, unassigned) [Example 17]	–	551	–
C[C@H]1Cc2ccc(S(N)(=O)=O)cc2N1C(=O)C1Cc2cc(-c3ccccn3)ccc2O1 (stereo partly shown) [Example 56]	2220	255	–
COc1nc(-c2ccc3c(c2)CC(C(=O)N2CCc4ccc(S(N)(=O)=O)cc42)C3)cs1 (stereo not shown) [Example 26]	–	131	–
C[S@@](=N)(=O)c1cc2c(cc1F)CCN2C(=O)[C@@H]1Cc2ccc(-c3ccccn3)cc2C1 [Example 40, (R)-(5-fluoro-1-((R)-5-(pyridin-2-yl)-2,3-dihydro-1H-indene-2-carbonyl)indolin-6-yl)(imino)(methyl)-16-sulfanone]	816	196	–
CC[C@H]1Cc2cc(F)c(S(N)(=O)=O)cc2N1C(=O)[C@@H]1Cc2ccc(-c3ccccn3)cc2C1 [Example 114]	926	128	–
NS(=O)(=O)c1ccc2c(c1)N(C(=O)[C@@H]1Cc3ccc(-c4ncccn4)cc3C1)CC2 [Example 133, (R)-1-(5-(pyrimidin-2-yl)-2,3-dihydro-1H-indene-2-carbonyl)indoline-6-sulfonamide]	6130	102	–
C[C@@H]1c2ccc(-c3ccccn3)cc2C[C@H]1C(=O)N1CCc2ccc(S(N)(=O)=O)cc21 [Example 93, 1-((1S,2R)-1-methyl-5-(pyridin-2-yl)-2,3-dihydro-1H-indene-2-carbonyl)indoline-6-sulfonamide]	≥ 25000	1850	–
C[S@@](=N)(=O)c1ccc2c(c1)N(C(=O)[C@@H]1Cc3ccc(-c4ccccn4)cc3C1)CC2 (single isomer, unassigned) [Example 31]	9380	849	–

SMILES	EC50 (HSV-2 virus (MS strain); [2]) [nM]	EC50 (HSV-2 virus (MS strain); read-out: EC50-HSV2-FBS) [nM]	CC50 at 5 days [1] [nM]
COc1cccc(-c2ccc3c(c2)CC(C(=O)N2CCc4ccc(S(N)(=O)=O)cc42)C3)n1 (stereo not shown) [Example 77]	10500	121	–
C[C@H]1CN(C(=O)[C@@H]2Cc3ccc(-c4ccccn4)cc3C2)c2cc(S(N)(=O)=O)ccc21 [Example 107, (R)-3-methyl-1-((R)-5-(pyridin-2-yl)-2,3-dihydro-1H-indene-2-carbonyl)indoline-6-sulfonamide]	≥ 25000	95	–
NS(=O)(=O)c1ccc2c(c1)N(C(=O)[C@H]1Cc3ccc(-c4ccccn4)cc3C1)CC2 [Example 80, (S)-1-(5-(pyridin-2-yl)-2,3-dihydro-1H-indene-2-carbonyl)indoline-6-sulfonamide]	–	409	–
Cc1cc(S(N)(=O)=O)cc2c1CCN2C(=O)C1Cc2ccc(-c3ccccn3)cc2C1 (stereo not shown) [Example 2]	23600	65	–
NS(=O)(=O)c1cc(F)c2c(c1)N(C(=O)C1Cc3ccc(-c4ccccn4)cc3C1)CC2 (stereo not shown) [Example 6]	≥ 25000	72	–
C[C@@H]1CN(C(=O)[C@H]2Cc3cc(-c4ccccn4)c(F)cc3O2)c2cc(S(N)(=O)=O)c(F)cc21 [Example 136, (S)-5-fluoro-1-((R)-6-fluoro-5-(pyridin-2-yl)-2,3-dihydrobenzofuran-2-carbonyl)-3-methylindoline-6-sulfonamide]	2220	89.6	–
C[C@@H]1Cc2cc(F)c(S(N)(=O)=O)cc2N1C(=O)[C@H]1Cc2ccc(-c3ccccn3)cc2C1 [Example 141, (R)-5-fluoro-2-methyl-1-((S)-5-(pyridin-2-yl)-2,3-dihydro-1H-indene-2-carbonyl)indoline-6-sulfonamide]	2630	293	–
COc1cncc(-c2ccc3c(c2)CC(C(=O)N2CCc4ccc(S(N)(=O)=O)cc42)C3)n1 (stereo not shown) [Example 72]	12300	252	–
C[C@@H]1Cc2ccc(S(N)(=O)=O)cc2N1C(=O)[C@H]1Cc2ccc(-c3ccccn3)cc2C1 (single isomer, unassigned) [Example 14]	–	2480	–
NS(=O)(=O)c1ccc2c(c1)N(C(=O)C1Cc3ccc(-c4nccs4)cc3C1)CC2 (stereo not shown) [Example 20]	–	91	–
NS(=O)(=O)c1ccc2c(c1)N(C(=O)[C@@H]1Cc3ccc(-c4cccc5ccccc45)cc3C1)CC2 [Example 134, (R)-1-(5-(naphthalen-1-yl)-2,3-dihydro-1H-indene-2-carbonyl)indoline-6-sulfonamide]	3100	231	–
NS(=O)(=O)c1ccc2c(c1)N(C(=O)C1Cc3cc(F)c(-c4ccccn4)cc3C1)CC2 (stereo not shown) [Example 9]	2600	105	–
C[C@@H]1CN(C(=O)[C@@H]2Cc3ccc(-c4ccccn4)cc3C2)c2cc(S(N)(=O)=O)ccc21 [Example 108, (S)-3-methyl-1-((R)-5-(pyridin-2-yl)-2,3-dihydro-1H-indene-2-carbonyl)indoline-6-sulfonamide]	–	285	–
CS(=N)(=O)c1cc2c(cc1F)CCN2C(=O)[C@@H]1Cc2ccc(-c3ccccn3)cc2C1 (mixture of isomers) [Example 39, (5-fluoro-1-((R)-5-(pyridin-2-yl)-2,3-dihydro-1H-indene-2-carbonyl)indolin-6-yl)(imino)(methyl)-λ^6-sulfanone]	188	45	–
NS(=O)(=O)c1ccc2c(c1)N(C(=O)[C@@H]1Cc3ccc(-c4cc(F)ccc4F)cc3C1)CC2 [Example 45, (R)-1-(5-(2,5-difluorophenyl)-2,3-dihydro-1H-indene-2-carbonyl)indoline-6-sulfonamide]	≥ 10000	67	–
NS(=O)(=O)c1ccc2c(c1)N(C(=O)C1Cc3ccc(-c4ccsn4)cc3C1)CC2 (stereo not shown) [Example 24]	≥ 25000	19	–
Cc1csc(-c2ccc3c(c2)CC(C(=O)N2CCc4ccc(S(N)(=O)=O)cc42)C3)n1 (stereo not shown) [Example 22]	–	48	–
NS(=O)(=O)c1ccc2c(c1)N(C(=O)C1Cc3ccc(-c4ccccn4)cc3O1)CC2 (stereo not shown) [Example 115, 1-(6-(pyridin-2-yl)-2,3-dihydrobenzofuran-2-carbonyl)indoline-6-sulfonamide]	1640	99	–
NS(=O)(=O)c1ccc2c(c1)N(C(=O)C1Cc3ccc(-c4ccccc4)cc3C1)CC2 (stereo not shown) [Example 69, 1-(5-phenyl-2,3-dihydro-1H-indene-2-carbonyl) indoline-6-sulfonamide]	≥ 25000	119	–
C[C@@H]1Cc2cc(F)c(S(N)(=O)=O)cc2N1C(=O)[C@@H]1Cc2cc(-c3ccccn3)ccc2O1 [Example 43]	9270	352	–
